Laboratory results from PubChem BioAssay (NCI).
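These data come from cells grown in 96-well plates and exposed to compound for 48 hours at five concentrations. GI50: concentration for 50% inhibition of growth. TGI marks complete inhibition of growth.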

Assays:
Assay in all cases: NCI anticancer screen, dose series, 48 h; in the data active = GI50 below about 0.43 µM; inactive = the rest
[1] = test system: UO-31 renal
[2] = test system: MOLT-4 leukemia
[3] = test system: 786-0 renal
[4] = test system: LOX IMVI melanoma
[5] = test system: SF-268 CNS
[6] = test system: SR leukemia
[7] = test system: MDA-MB-231 breast
[8] = test system: UACC-62 melanoma
[9] = test system: HCT-116 colon
[10] = test system: DU-145 prostate
[11] = test system: SF-295 CNS
[12] = test system: KM12 colon
[13] = test system: HOP-62 NSCLC
[14] = test system: TK-10 renal
[15] = test system: OVCAR-8 ovarian
[16] = test system: RXF 393 renal
[17] = test system: NCI-H460 lung
[18] = test system: HCT-15 colon
[19] = test system: EKVX NSCLC
[20] = test system: NCI-H23 lung
[21] = test system: HOP-92 NSCLC
[22] = test system: SN12C renal
[23] = test system: U251 CNS
[24] = test system: HS 578T breast
[25] = test system: SK-MEL-5 melanoma
[26] = test system: M14 melanoma
[27] = test system: SNB-19 CNS
[28] = test system: ACHN renal
[29] = test system: NCI-H226 lung
[30] = test system: OVCAR-4 ovarian
[31] = test system: HL-60(TB) leukemia
[32] = test system: IGROV1 ovarian
[33] = test system: SK-OV-3 ovarian
[34] = test system: SW-620 colon
[35] = test system: COLO 205 colon
[36] = test system: SK-MEL-28 melanoma
[37] = test system: MCF7 breast
[38] = test system: NCI/ADR-RES ovarian
[39] = test system: RPMI-8226 leukemia
[40] = test system: OVCAR-5 ovarian
[41] = test system: OVCAR-3 ovarian
[42] = test system: HT29 colon
[43] = test system: A549 NSCLC
[44] = test system: MALME-3M melanoma
[45] = test system: CAKI-1 renal
[46] = test system: MDA-N
[47] = test system: SF-539 CNS
[48] = test system: SNB-75 CNS
[49] = test system: CCRF-CEM leukemia
[50] = test system: UACC-257 melanoma
[51] = test system: MDA-MB-435
[52] = test system: SK-MEL-2 melanoma
[53] = test system: PC-3 prostate
[54] = test system: K-562 leukemia
[55] = test system: BT-549 breast
[56] = test system: HCC-2998 colon
[57] = test system: NCI-H522 lung
[58] = test system: T-47D breast
[59] = test system: A498 renal

CCOC(=O)/C(O)=C(\C=N\C(=S)Nc1ccc(Cl)c(Cl)c1)C(=O)OCC
> 100 µM: TGI [1] | TGI [2] | TGI [3] | TGI [4] | TGI [5] | TGI [6] | TGI [7] | TGI [8] | TGI [9] | TGI [10] | TGI [11] | TGI [12] | TGI [13] | TGI [14] | TGI [15] | TGI [16] | TGI [17] | TGI [18] | TGI [19] | TGI [20] | TGI [21] | TGI [22] | TGI [23] | TGI [24] | TGI [25] | TGI [26] | TGI [27] | TGI [28] | TGI [29] | TGI [30] | TGI [32] | TGI [33] | TGI [34] | TGI [35] | TGI [36] | TGI [37] | TGI [38] | TGI [39] | TGI [40] | TGI [41] | TGI [42] | TGI [43] | TGI [44] | TGI [45] | TGI [46] | TGI [47] | TGI [48] | TGI [49] | TGI [50] | TGI [51] | TGI [52] | TGI [53]
59.7 µM: TGI [31]

COc1ccc(C(=O)Nc2cccc(C3CC(=O)c4c(cc(OC)c(OC)c4OC)O3)c2)cc1 (configuration not stated)
98.4 µM: TGI [33]
56 µM: TGI [50]
56.4 µM: TGI [37]
8.12 µM: TGI [59]
5.18 µM: TGI [2]
32.6 µM: TGI [44]
inactive: GI50 [1] 1.33 µM | GI50 [2] 1.02 µM | GI50 [3] 0.795 µM | GI50 [4] 0.84 µM | GI50 [5] 2.29 µM | GI50 [7] 2.06 µM | GI50 [8] 0.557 µM | GI50 [10] 2.88 µM | GI50 [55] 1.01 µM | GI50 [11] 1.72 µM | GI50 [12] 1.08 µM | GI50 [13] 1.72 µM | GI50 [14] 7.28 µM | GI50 [15] 2.79 µM | GI50 [16] 1.64 µM | GI50 [17] 2.21 µM | GI50 [18] 0.475 µM | GI50 [19] 3.12 µM | GI50 [56] 3.46 µM | GI50 [20] 2.63 µM | GI50 [21] 1.66 µM | GI50 [22] 1.62 µM | GI50 [24] 2 µM | GI50 [25] 1.49 µM | GI50 [26] 0.534 µM | GI50 [27] 1.01 µM | GI50 [28] 2.57 µM | GI50 [29] 2.6 µM | GI50 [58] 2.13 µM | GI50 [30] 3.11 µM | GI50 [31] 1 µM | GI50 [32] 2.41 µM | GI50 [33] 3.63 µM | GI50 [34] 0.691 µM | GI50 [35] 2.39 µM | GI50 [36] 5.13 µM | GI50 [37] 0.466 µM | GI50 [38] 0.629 µM | GI50 [39] 0.726 µM | GI50 [40] 4.98 µM | GI50 [42] 3.38 µM | GI50 [43] 3.31 µM | GI50 [44] 1.56 µM | GI50 [45] 1.58 µM | GI50 [47] 1.66 µM | GI50 [48] 1.35 µM | GI50 [50] 11.6 µM | GI50 [59] 2 µM | GI50 [52] 2.09 µM | GI50 [53] 0.736 µM
7.81 µM: TGI [55]
20.5 µM: TGI [15]
4.65 µM: TGI [47]
11.7 µM: TGI [17]
8.35 µM: TGI [48]
12.2 µM: TGI [42]
5.48 µM: TGI [16]
52.4 µM: TGI [4]
14.7 µM: TGI [12]
30.7 µM: TGI [30]
4.04 µM: TGI [25]
> 100 µM: TGI [1] | TGI [3] | TGI [5] | TGI [6] | TGI [7] | TGI [54] | TGI [9] | TGI [10] | TGI [13] | TGI [14] | TGI [18] | TGI [19] | TGI [20] | TGI [22] | TGI [27] | TGI [28] | TGI [32] | TGI [34] | TGI [36] | TGI [40] | TGI [43] | TGI [45] | TGI [49]
8.1 µM: TGI [58]
42.4 µM: TGI [24]
3.36 µM: TGI [31]
5.15 µM: TGI [57]
active: GI50 [6] 0.171 µM | GI50 [54] 0.367 µM | GI50 [9] 0.381 µM | GI50 [57] 0.411 µM | GI50 [41] 0.337 µM | GI50 [49] 0.426 µM | GI50 [51] 0.276 µM
1.4 µM: TGI [51]
3.51 µM: TGI [39]
8.31 µM: TGI [21]
10.8 µM: TGI [8]
43.1 µM: TGI [29]
63.8 µM: TGI [11]
41.7 µM: TGI [26]
27.9 µM: TGI [53]
39.7 µM: TGI [41]
87.1 µM: TGI [56]
27.1 µM: TGI [52]
6.57 µM: TGI [35]
17.6 µM: TGI [38]
